Assay results reported in patent US20240376138A1, “Crystal Forms, Preparation Method And Application Of Aryl Phosphine Oxide Compound” (Chengdu Di'Ao Jiuhong Pharmaceutical Factory, priority 2021, published 2024).

Experiments:
[1] = system: PC9 cells expressing EGFR-T790M/Del19; experiment: Cell anti-proliferation experiment 2, PC9 cells (SRB); type: cell-based; details: Homo sapiens, PC-9, 72 h, read-out: EGFR-T790M/Del19 GI50
Protocol: (§1) • 1. […] Test information: • 2.1. Cell information: PC9 cells carried EGFR Del19 mutation, and the rest of mutant cells were constructed from PC9 cells according to the conventional stable cell strain construction method. • PC9-cell lines expressing EGFR mutation • EGFR-Del19 • EGFR-T790M/Del19 • EGFR-C797S/T790M/Del19 • 2.2. Test method:
(§2) The test compounds were diluted by 5 times each time with an appropriate concentration as an initial concentration of the test, and totally diluted into 6 concentration gradients. […] SRB (Sulforhodamine B) detection method was used, and the optical density value of each well was read by a microplate reader at 490 nm wavelength.
(§3) The optical density of the cells at the drug action of 0 was set as a Tz value representing the value of the cells at the time that the drug was added. The optical density value of the cells after the solvent control DMSO acted for 72 hours was set as a C value. The optical density of the cells on which the test compounds acted for 72 hours was set as a Ti value. The response of the cells to the drug was calculated according to a method proposed by the U.S. NIH-NCI (National Institutes of Health-National Institute of Cancer): When Ti is more than or equal to Tz, the value was [(Ti−Tz)/(C−Tz)]×100; and when Ti is less than Tz, the value was [(Ti−Tz)/Tz]×100.

[2] = system: PC9 cells expressing EGFR-C797S/T790M/Del19; experiment: as above; type: cell-based; details: Homo sapiens, PC-9, 72 h, read-out: EGFR-C797S/T790M/Del19 GI50
Protocol: as §1, §2, §3

[3] = system: PC9 cells expressing EGFR-Del19; experiment: as above; type: cell-based; details: Homo sapiens, PC-9, 72 h, read-out: EGFR-Del 19 GI50
Protocol: as §1, §2, §3

[4] = molecular target: T1, BaF3 cells expressing EML-4-ALK-WT (Homo sapiens, UniProt Q9UM73); experiment: Cell anti-proliferation experiment 3, BaF3 cells with ALK fusion (CellTiter-Glo); type: cell-based; details: 3 days, CTG, read-out: EML-4-ALK-WT IC50
T1 construct: fused on or other part: Q9HC35 (Echinoderm microtubule-associated protein-like 4)
Description: (§4) • 1. […] Test information: • 2.1. Cell information: Cell lines containing ALK mutations in BaF3 were from WuXiAppTec: • Ba/F3-cell lines expressing ALK gene fusion and mutation • Ba/F3-EML-4-ALK-WT • Ba/F3-EML-4-ALK-L 1196M • 2.2.
(§5) Test results: The IC50 values of the compound DA and the control compound against BaF3 cells expressing EML-4-ALK-WT and EML-4-ALK-L1196M are shown in Table 22. • 4.

[5] = molecular target: Ba/F3 cells expressing EGFR-C797S/L858R (Homo sapiens, UniProt P00533, C797S/L858R, cells depend on it); experiment: Cell anti-proliferation experiment 1, BaF3 cells expressing EGFR mutation (CellTiter-Glo); type: cell-based; details: 3 days, CTG, read-out: EGFR-C797S/L858R IC50
Protocol: (§6) Test purpose: to detect the effect of the test compounds on the proliferation of cell lines containing EGFR mutations in BaF3 cells • 2. Test information: • 2.1. Cell information: Cell lines containing EGFR mutations in BaF3 were from WuXiAppTec: • BaF3-cell lines expressing EGFR mutation • EGFR-T790M/Del19 • EGFR-C797S/Del19 • EGFR-T790M/L858R • EGFR-C797S/L858R • EGFR-C797S/T790M/L858R • EGFR-C797S/T790M/Del19 • EGFR-WT wild-type cell lines • 2.2. Test method • Day 0: Cells were seeded in a plate. • a. An ultraviolet lamp of a biological safety cabinet was turned on and countdown was started for 30 minutes. • b. A medium was preheated in a 37° C. water bath. • c. After the ultraviolet irradiation was finished, the biological safety cabinet was opened. […] The cells were removed from an incubator, blown to a uniform cell suspension in the biological safety cabinet and counted. • e. […] The IC50 of each compound was calculated by computer fitting with XL-Fit analysis software (the IC50 of the compound on the cell activity inhibition could be obtained by reading the concentrations of the corresponding compounds at 500 inhibition rate). Inhibition rate % C (reading value of the control group without drug−reading value of the sample)/reading value of the control group without drug×100. • 3.

[6] = molecular target: Ba/F3 cells expressing EGFR-T790M/L858R (Homo sapiens, UniProt P00533, T790M/L858R, cells depend on it); experiment: as above; type: cell-based; details: 3 days, CTG, read-out: EGFR-T790M/L858R IC50
Protocol: as §6

[7] = molecular target: Ba/F3 cells expressing EGFR-C797S/Del19 (Homo sapiens, UniProt P00533, C797S, cells depend on it, form not given); experiment: as above; type: cell-based; details: 3 days, CTG, read-out: EGFR-C797S-Del19 IC50
[8] = molecular target: Ba/F3 cells expressing EGFR-WT (Homo sapiens, UniProt P00533); experiment: Cell anti-proliferation experiment 1, BaF3 EGFR-WT wild-type cell line (CellTiter-Glo); type: cell-based; details: read-out: EGFR-WT IC50
Protocol: (§7) Test purpose: to detect the effect of the test compounds on the proliferation of cell lines containing EGFR mutations in BaF3 cells • 2. […] Cell information: Cell lines containing EGFR mutations in BaF3 were from WuXiAppTec: • BaF3-cell lines expressing EGFR mutation • EGFR-T790M/Del19 • EGFR-C797S/Del19 • EGFR-T790M/L858R • EGFR-C797S/L858R • EGFR-C797S/T790M/L858R • EGFR-C797S/T790M/Del19 • EGFR-WT wild-type cell lines • 2.2. Test method • Day 0: Cells were seeded in a plate. • a. An ultraviolet lamp of a biological safety cabinet was turned on and countdown was started for 30 minutes. • b. A medium was preheated in a 37° C. water bath. • c. After the ultraviolet irradiation was finished, the biological safety cabinet was opened. The pre-heated medium, PBS, and the like, were wiped with alcohol and placed in the biological safety cabinet. • d. The cells were removed from an incubator, blown to a uniform cell suspension in the biological safety cabinet and counted. • e. Based on the cell counting results, the cell suspension was adjusted to a density of 3,000 cells per well and 50 microliters per well, and seeded in 384-well plates. • f. The cells after seeding were incubated in a 5% CO2 incubator at 37° C. for 3 hours. • g. Compounds were added to the cell plates using Tecan (liquid workstation). • Day 3: the cell plate added with the compounds and CTG (CellTiter-Glo chemiluminescence cell activity assay reagent) were equilibrated at room temperature, 25 μl of CTG was added to each well, centrifuged at 1,000 rpm for 1 minute, and shaken for 1-2 minutes. And centrifuging for 1 minute at 1,000 rpm again, the cell plates were allowed to settle for 10 minutes to detect a signal value in Envision. The IC50 of each compound was calculated by computer fitting with XL-Fit analysis software (the IC50 of the compound on the cell activity inhibition could be obtained by reading the concentrations of the corresponding compounds at 500 inhibition rate). Inhibition rate % C (reading value of the control group without drug−reading value of the sample)/reading value of the control group without drug×100. • 3.

[9] = molecular target: Ba/F3 cells expressing EGFR-C797S/T790M/Del19 (Homo sapiens, UniProt P00533, T790M/C797S, cells depend on it, form not given); experiment: Cell anti-proliferation experiment 1, BaF3 cells expressing EGFR mutation (CellTiter-Glo); type: cell-based; details: read-out: EGFR-C797S/T790M/Del19 IC50
[10] = molecular target: Ba/F3 cells expressing EGFR-C797S/T790M/L858R (Homo sapiens, UniProt P00533, T790M/C797S/L858R, cells depend on it); experiment: as above; type: cell-based; details: read-out: EGFR-C797S/T790M/L858R IC50
Protocol: as §7

[11] = molecular target: T2, BaF3 cells expressing EML-4-ALK-L1196M (Homo sapiens, UniProt Q9UM73, L1196M, cells depend on it); experiment: Cell anti-proliferation experiment 3, BaF3 cells with ALK fusion and mutation (CellTiter-Glo); type: cell-based; details: 3 days, CTG, read-out: EML-4-ALK-L1196M IC50
T2 construct: fused on or other part: Q9HC35 (Echinoderm microtubule-associated protein-like 4)
Description: as §4, §5

[12] = molecular target: Ba/F3 cells expressing EGFR-T790M/Del19 (Homo sapiens, UniProt P00533, T790M, cells depend on it, form not given); experiment: Cell anti-proliferation experiment 1, BaF3 cells expressing EGFR mutation (CellTiter-Glo); type: cell-based; details: 3 days, CTG, read-out: EGFR-T790M/Del19 IC50
[13] = High temperature and illumination stability test of crystal forms 1-3; type: physicochemical; details: Illumination (illuminance: 5000Lx), Day 0 (Table 18-1)
[14] = Comparative experiment of hygroscopicity (Chinese Pharmacopoeia 2020); type: physicochemical; details: for Hygroscopicity: class by weight gain after 24 h; for Weight gain % after 24 h: hygroscopicity test
Description: The description of hygroscopic characteristics and the definition of hygroscopic weight gain are as follows: • Deliquescence: absorbs sufficient amount of water to form a liquid; • Very hygroscopic: the weight gain by hygroscopy is not less than 15%; • Hygroscopic: the weight gain by hygroscopy is less than 15% but not less than 2%; • Slightly hygroscopic: the weight gain by hygroscopy is less than 2% but not less than 0.2%; and
Not or almost not hygroscopic: the weight gain by hygroscopy is less than 0.2% from hygroscopicity.

Solubility test = type: physicochemical; details: Solution with pH = 6.8, 25° C.±2° C.
[15] = Stability test 3: long-term and accelerated conditions; type: physicochemical; details: Long-term (25° C. ± 2° C., 65% RH ± 10% RH)
[16] = High temperature and illumination stability test of crystal forms 1-3; type: physicochemical; details: for Traits: Day 10 (Table 18-1)
Description: The stabilities of crystal form 2 and crystal form 3 under high temperature, illumination and long-term conditions were investigated.

[17] = High temperature (50° C.), Day 10
[18] = High temperature (50° C.), Day 30
[19] = Illumination (illuminance: 5000Lx), Day 10
[20] = Illumination (illuminance: 5000Lx)
[21] = Illumination (illuminance: 5000Lx), Day 30

Ba/F3 cells expressing EGFR-C797S/T790M/L858R, sequence (P00533 whole entry T790M/C797S/L858R, the tested form may be a part): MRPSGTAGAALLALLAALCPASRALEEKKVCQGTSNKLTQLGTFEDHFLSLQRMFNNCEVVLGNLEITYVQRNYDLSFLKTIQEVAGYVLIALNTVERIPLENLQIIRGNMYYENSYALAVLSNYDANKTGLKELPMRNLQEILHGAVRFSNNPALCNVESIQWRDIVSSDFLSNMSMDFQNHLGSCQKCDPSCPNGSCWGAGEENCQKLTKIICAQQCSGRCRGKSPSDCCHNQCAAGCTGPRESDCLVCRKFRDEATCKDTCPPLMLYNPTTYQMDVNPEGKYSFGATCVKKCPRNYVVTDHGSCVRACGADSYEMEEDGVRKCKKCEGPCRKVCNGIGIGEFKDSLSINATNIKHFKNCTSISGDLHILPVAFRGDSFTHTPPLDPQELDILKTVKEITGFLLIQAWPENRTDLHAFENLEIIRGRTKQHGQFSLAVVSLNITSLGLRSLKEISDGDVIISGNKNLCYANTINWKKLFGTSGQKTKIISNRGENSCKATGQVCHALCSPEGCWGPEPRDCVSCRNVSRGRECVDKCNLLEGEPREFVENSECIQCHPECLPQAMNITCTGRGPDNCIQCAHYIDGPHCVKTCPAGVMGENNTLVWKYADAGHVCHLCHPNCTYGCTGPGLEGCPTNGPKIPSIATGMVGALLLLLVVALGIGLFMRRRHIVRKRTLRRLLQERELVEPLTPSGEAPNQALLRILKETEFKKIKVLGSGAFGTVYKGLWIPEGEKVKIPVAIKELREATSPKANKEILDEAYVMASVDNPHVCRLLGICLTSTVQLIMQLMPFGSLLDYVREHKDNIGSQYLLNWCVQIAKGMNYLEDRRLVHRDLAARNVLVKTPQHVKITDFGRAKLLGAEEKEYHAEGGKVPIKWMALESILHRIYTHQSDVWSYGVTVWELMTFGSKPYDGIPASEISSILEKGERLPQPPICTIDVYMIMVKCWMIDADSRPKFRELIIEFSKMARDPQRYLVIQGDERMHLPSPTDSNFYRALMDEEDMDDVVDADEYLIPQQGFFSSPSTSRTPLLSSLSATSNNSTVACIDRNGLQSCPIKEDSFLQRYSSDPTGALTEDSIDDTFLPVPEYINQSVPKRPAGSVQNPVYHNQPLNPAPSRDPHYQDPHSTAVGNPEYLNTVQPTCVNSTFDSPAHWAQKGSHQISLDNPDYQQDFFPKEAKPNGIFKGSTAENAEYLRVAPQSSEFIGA
T1 sequence (Q9UM73 whole entry, change not shown, the tested form may be a part): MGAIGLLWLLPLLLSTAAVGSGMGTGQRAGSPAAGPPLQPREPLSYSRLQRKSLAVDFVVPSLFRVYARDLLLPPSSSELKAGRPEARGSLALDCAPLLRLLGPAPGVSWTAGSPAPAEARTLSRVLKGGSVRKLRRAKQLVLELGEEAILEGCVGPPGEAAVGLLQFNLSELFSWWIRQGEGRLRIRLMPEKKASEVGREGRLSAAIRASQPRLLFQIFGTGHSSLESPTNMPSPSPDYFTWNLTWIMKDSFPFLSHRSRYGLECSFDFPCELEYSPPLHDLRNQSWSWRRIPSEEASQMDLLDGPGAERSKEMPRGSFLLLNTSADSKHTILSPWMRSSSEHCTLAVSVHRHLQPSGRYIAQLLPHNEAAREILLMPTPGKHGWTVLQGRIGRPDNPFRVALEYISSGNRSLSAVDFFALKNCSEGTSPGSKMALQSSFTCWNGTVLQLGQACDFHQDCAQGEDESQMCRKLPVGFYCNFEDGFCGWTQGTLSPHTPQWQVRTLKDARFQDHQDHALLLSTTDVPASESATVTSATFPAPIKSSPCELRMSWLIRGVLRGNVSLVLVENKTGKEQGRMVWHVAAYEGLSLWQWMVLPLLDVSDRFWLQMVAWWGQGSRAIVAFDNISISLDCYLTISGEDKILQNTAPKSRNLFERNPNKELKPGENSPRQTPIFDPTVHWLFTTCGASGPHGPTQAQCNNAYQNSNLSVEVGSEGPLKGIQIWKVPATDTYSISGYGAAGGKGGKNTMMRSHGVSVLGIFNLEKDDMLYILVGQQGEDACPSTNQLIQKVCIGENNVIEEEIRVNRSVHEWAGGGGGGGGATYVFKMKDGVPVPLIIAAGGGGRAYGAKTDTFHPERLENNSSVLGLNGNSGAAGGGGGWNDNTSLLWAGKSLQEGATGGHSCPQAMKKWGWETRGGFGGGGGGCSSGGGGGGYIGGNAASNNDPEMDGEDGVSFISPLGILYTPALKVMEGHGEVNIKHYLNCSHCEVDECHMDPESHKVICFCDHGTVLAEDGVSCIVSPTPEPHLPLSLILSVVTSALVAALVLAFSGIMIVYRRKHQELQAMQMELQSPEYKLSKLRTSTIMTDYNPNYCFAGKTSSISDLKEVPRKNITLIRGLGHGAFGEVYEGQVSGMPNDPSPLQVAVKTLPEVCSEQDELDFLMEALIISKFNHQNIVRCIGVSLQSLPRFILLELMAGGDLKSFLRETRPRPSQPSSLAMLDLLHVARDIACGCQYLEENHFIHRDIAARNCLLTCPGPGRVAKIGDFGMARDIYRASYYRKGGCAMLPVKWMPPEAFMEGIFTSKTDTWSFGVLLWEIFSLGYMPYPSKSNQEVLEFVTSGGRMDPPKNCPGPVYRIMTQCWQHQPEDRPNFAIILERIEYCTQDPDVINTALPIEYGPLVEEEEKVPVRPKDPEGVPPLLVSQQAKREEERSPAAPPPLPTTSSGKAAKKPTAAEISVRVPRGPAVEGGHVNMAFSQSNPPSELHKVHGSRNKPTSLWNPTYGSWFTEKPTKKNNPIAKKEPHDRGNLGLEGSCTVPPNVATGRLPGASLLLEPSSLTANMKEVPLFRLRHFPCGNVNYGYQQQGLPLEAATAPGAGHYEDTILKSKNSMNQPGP
Ba/F3 cells expressing EGFR-C797S/T790M/Del19, sequence (P00533 with tags, fused parts or gaps DEL746-750/T790M/C797S, form open): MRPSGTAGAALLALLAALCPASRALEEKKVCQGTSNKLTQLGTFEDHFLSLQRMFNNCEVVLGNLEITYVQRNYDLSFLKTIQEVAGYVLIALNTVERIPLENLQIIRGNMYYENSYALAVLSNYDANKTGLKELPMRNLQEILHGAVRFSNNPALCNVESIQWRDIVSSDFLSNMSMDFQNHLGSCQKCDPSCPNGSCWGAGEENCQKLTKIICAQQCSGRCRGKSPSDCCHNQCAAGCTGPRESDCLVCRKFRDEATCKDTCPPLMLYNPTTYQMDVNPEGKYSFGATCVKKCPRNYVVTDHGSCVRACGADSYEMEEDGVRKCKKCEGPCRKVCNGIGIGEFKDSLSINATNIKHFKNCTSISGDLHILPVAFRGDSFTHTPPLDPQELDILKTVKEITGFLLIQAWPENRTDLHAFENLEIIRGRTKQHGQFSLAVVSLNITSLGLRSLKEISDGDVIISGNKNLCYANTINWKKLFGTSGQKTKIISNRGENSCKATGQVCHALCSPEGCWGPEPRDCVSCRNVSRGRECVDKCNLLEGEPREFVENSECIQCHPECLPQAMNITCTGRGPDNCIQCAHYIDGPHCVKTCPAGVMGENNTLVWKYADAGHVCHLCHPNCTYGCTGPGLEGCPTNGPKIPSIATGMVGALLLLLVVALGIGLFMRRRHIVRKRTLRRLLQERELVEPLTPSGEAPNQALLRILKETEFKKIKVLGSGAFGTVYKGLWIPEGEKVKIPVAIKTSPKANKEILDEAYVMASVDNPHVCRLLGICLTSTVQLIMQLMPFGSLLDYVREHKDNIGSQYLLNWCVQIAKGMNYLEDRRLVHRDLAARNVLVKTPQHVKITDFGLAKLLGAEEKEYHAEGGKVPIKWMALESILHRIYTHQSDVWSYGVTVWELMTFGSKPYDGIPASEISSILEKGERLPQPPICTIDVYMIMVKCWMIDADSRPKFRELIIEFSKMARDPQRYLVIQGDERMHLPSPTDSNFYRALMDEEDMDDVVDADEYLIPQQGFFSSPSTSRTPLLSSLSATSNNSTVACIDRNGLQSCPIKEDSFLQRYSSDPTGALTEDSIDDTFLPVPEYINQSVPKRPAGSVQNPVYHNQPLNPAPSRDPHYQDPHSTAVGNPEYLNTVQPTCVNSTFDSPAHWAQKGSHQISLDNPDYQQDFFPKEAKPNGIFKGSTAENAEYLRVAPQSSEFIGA
T2 sequence (Q9UM73 whole entry L1196M, the tested form may be a part): as the sequence (Q9UM73 whole entry, change not shown, the tested form may be a part) above, with L1196M counted along it

SMILES	GI50 [4] [nM]	GI50 [7] [nM]	GI50 [8] [nM]	GI50 [9] [nM]	GI50 [10] [nM]	GI50 [11] [nM]	GI50 [12] [nM]	Traits [13]	Hygroscopicity [14]	Weight gain % after 24 h [14] [%]	Solubility for 24 h (Solubility test) [µg/mL]	Traits ([15]; Day 0)	Traits ([15]; Day 30)	purity ([16]; Day 0)	the number of impurities above the reporting limit ([16]; Day 0)	total impurities ([16]; Day 0)	purity [16, 17]	the number of impurities above the reporting limit [16, 17]	total impurities [16, 17]	purity [16, 18]	other results
COc1cc(N2CCC(N3CCN(C)CC3)CC2)ccc1Nc1ncc(Cl)c(Nc2ccccc2P(C)(C)=O)n1 [Brigatinib (Brigatinib), Brigatinib]	–	–	–	–	–	–	–	–	–	–	–	–	–	–	–	–	–	–	–	–	GI50 [1]: 256 nM; GI50 [2]: 516 nM; GI50 [3]: 287 nM
COc1cc(N2CCC(N3CCN(C)CC3)CC2)c(C)cc1Nc1ncc(Cl)c(Nc2cccc(C)c2P(C)(C)=O)n1 [Control compound 1]	34.1	184	1600	180	626	65	166	–	–	–	–	–	–	–	–	–	–	–	–	–	GI50 [5]: 573 nM; GI50 [6]: 156 nM
COc1cc(N2CCC(N3CCN(C)CC3)CC2)c(C)cc1Nc1ncc(Cl)c(Nc2ccccc2P(C)(C)=O)n1 [Control compound 2]	43.6	177	1760	221	583	47.4	172	–	–	–	–	–	–	–	–	–	–	–	–	–	–
COc1cc(N2CCC(N3CCN(C)CC3)CC2)ccc1Nc1ncc(Cl)c(Nc2ccc(C)cc2P(C)(C)=O)n1 [Control compound 3]	39.4	203	2340	192	566	50.2	216	–	–	–	–	–	–	–	–	–	–	–	–	–	–
COc1cc(N2CCC(N3CCN(C)CC3)CC2)c(C)cc1Nc1ncc(Br)c(Nc2ccc(C)cc2P(C)(C)=O)n1 [Crystal form 2, (2-((5-bromo-2-((2-methoxy-5-methyl-4-(4-(4-methylpiperazin-1-yl)piperidin-1-yl)phenyl)amino)pyrimidin-4-yl)amino)-5-methylphenyl)dimethylphosphorus oxide]	–	–	–	–	–	–	–	off-white	Slightly hygroscopic (the weight gain by hygroscopy is less than 2% but not less than 0.2%)	1.35	1360	Off-white	Light yellow	purity: 99.37%	limit is 7 total	impurities: 0.63%	99.20% the	limit is 9 total	impurities: 0.80%	purity: 98.72%;	total impurities ([16]; Day 0, listed as crystal form 2): 0.63%; the number of impurities above the reporting limit [16, 18]: limit is 13;; total impurities [16, 18]: 1.28%; purity [16, 19]: 99.01% the; the number of impurities above the reporting limit [16, 19]: limit is 10 total; total impurities [16, 19]: impurities: 0.99%; Traits [16, 20]: light yellow; purity [16, 21]: purity: 98.0%;; the number of impurities above the reporting limit [16, 21]: limit is 14;; total impurities [16, 21]: 2.0%; total impurities ([16]; Illumination (illuminance: 5000Lx), Day 30, listed as crystal form 2): 2.0%
COc1cc(N2CCC(N3CCN(C)CC3)CC2)c(C)cc1Nc1ncc(Br)c(Nc2ccc(C)cc2P(C)(C)=O)n1 [Crystal form 3, (2-((5-bromo-2-((2-methoxy-5-methyl-4-(4-(4-methylpiperazin-1-yl)piperidin-1-yl)phenyl)amino)pyrimidin-4-yl)amino)-5-methylphenyl)dimethylphosphorus oxide]	–	–	–	–	–	–	–	off-white	Slightly hygroscopic (the weight gain by hygroscopy is less than 2% but not less than 0.2%)	1.49	1230	Off-white	Light yellow	purity: 99.44%;	limit is 7;	0.56%	99.28%; the	limit is 7; total	impurities: 0.72%	98.89%; the	total impurities ([16]; Day 0, listed as crystal form 3): 0.56%; the number of impurities above the reporting limit [16, 18]: limit is 10;; total impurities [16, 18]: 1.11%; purity [16, 19]: purity: 98.83%;; the number of impurities above the reporting limit [16, 19]: limit is 10;; total impurities [16, 19]: 1.17%; Traits [16, 20]: light yellow; purity [16, 21]: purity: 96.95%;; the number of impurities above the reporting limit [16, 21]: limit is 17;; total impurities [16, 21]: 3.05%; total impurities ([16]; Illumination (illuminance: 5000Lx), Day 30, listed as crystal form 3): 3.05%
